Measurements published in PMC3961306, “Comparison of the Cancer Gene Targeting and Biochemical Selectivities of All Targeted Kinase Inhibitors Approved for Clinical Use” (PLoS ONE, 2014).

Key:
Test in all cases: Kinase profiling in a biochemical assay panel (mobility shift assays and ELISA), %-inhibition at 1 μM; selectivity entropy
[1] = biological target: panel of more than 300 wild-type and mutant kinases (313 kinase panel) (Homo sapiens, UniProt P53350)
[2] = biological target: panel of more than 300 wild-type and mutant kinases (313 kinase panel) (Homo sapiens, UniProt P06493)
[3] = biological target: T1, panel of more than 300 wild-type and mutant kinases (313 kinase panel) (Homo sapiens, UniProt Q12852)
T1 sequence (Q12852 1-859): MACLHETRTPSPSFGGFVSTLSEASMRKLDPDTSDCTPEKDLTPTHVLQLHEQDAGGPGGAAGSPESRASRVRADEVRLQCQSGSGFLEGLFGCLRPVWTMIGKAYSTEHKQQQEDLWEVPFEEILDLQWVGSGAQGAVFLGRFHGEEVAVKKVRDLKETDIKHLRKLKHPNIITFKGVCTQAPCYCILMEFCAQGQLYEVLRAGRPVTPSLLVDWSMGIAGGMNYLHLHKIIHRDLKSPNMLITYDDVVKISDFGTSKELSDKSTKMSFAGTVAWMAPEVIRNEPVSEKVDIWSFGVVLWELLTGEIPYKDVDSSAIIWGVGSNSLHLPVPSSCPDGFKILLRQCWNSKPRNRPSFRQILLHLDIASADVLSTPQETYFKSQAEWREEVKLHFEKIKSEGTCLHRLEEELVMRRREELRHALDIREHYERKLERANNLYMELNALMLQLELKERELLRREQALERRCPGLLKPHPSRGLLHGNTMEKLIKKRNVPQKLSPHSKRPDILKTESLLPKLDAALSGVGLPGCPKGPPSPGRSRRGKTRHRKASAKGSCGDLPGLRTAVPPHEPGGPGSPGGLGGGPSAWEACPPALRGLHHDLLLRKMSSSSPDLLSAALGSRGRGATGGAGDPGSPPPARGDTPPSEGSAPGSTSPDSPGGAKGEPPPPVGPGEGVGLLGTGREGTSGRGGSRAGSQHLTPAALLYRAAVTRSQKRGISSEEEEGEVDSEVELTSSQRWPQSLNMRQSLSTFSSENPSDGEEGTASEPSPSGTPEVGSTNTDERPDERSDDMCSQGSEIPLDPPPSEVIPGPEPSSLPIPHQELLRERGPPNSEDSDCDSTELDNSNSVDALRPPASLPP

[4] = biological target: T2, panel of more than 300 wild-type and mutant kinases (313 kinase panel) (Homo sapiens, UniProt Q9BXA7)
T2 sequence (Q9BXA7 1-367): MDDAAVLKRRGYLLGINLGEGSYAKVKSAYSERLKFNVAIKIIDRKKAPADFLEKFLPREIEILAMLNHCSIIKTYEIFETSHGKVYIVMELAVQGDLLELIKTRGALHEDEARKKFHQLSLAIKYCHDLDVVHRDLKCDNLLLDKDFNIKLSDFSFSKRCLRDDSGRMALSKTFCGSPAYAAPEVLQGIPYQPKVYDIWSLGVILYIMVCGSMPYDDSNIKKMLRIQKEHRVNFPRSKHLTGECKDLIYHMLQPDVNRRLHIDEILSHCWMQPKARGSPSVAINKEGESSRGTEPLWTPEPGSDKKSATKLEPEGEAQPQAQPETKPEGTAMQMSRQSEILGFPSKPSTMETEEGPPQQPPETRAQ

[5] = biological target: T3, panel of more than 300 wild-type and mutant kinases (313 kinase panel) (Homo sapiens, UniProt O00418)
T3 sequence (O00418 1-725): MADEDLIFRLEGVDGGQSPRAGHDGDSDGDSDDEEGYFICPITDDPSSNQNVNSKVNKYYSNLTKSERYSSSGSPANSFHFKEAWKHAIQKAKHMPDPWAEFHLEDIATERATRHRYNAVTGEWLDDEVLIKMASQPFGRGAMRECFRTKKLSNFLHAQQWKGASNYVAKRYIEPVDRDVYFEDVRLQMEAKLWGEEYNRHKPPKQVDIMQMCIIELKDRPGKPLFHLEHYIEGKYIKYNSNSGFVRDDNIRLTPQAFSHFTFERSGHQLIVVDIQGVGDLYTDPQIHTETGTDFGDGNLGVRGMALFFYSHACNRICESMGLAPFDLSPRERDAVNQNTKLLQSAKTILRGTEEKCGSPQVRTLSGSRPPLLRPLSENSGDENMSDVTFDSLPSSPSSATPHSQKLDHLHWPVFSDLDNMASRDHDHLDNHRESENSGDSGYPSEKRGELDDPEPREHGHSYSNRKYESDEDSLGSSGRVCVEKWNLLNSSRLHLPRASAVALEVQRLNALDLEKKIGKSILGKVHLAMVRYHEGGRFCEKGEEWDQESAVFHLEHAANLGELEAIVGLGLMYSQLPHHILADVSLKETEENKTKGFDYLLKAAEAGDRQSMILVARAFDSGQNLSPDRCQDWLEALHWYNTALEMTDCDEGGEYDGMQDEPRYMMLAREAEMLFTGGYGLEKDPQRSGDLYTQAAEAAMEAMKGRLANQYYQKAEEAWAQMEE

[6] = kinase CDC2/CycB1, 1 μM compound

Row | Structure (SMILES) | %-inhibition of PLK1 ([1]; kinase PLK1, 1 μM) [%] | %-inhibition, CDC2/CycB1 [2, 6] [%] | %-inhibition of DLK ([3]; kinase DLK, compound at 1 μM) [%] | %-inhibition of TSSK1 ([4]; kinase TSSK1, 1 μM) [%] | %-inhibition of EEF2K ([5]; kinase EEF2K, compound at 1 μM) [%] | %-inhibition of PLK1 ([1]; 1 µM) [%] | %-inhibition, CDC2/CycB1 ([2]; 1 µM) [%] | %-inhibition of DLK ([3]; 1 µM) [%] | %-inhibition of TSSK1 ([4]; 1 µM) [%] | %-inhibition of EEF2K ([5]; 1 µM) [%]
1 | COc1cc(Nc2c(C#N)cnc3cc(OCCCN4CCN(C)CC4)c(OC)cc23)c(Cl)cc1Cl [bosutinib] | 5 | -1.38 | 77 | 29 | -7 |  |  |  |  | 
2 | COc1cc2nccc(Oc3ccc(NC(=O)C4(C(=O)Nc5ccc(F)cc5)CC4)cc3)c2cc1OC [cabozantinib] | -2 | -17 | 36 | -1.49 | -4.74 |  |  |  |  | 
3 | C[C@@H](Oc1cc(-c2cnn(C3CCNCC3)c2)cnc1N)c1c(Cl)ccc(F)c1Cl [crizotinib] | -3 | 19 | 86 | 21 | -4.6 |  |  |  |  | 
4 | CC(C)(C)c1nc(-c2cccc(NS(=O)(=O)c3c(F)cccc3F)c2F)c(-c2ccnc(N)n2)s1 [dabrafenib] | -9 |  | -10 | 8 |  |  |  |  |  | 
5 | Cc1nc(Nc2ncc(C(=O)Nc3c(C)cccc3Cl)s2)cc(N2CCN(CCO)CC2)n1 [dasatinib] |  | 4.44 | 20 | -4.66 |  |  |  |  |  | 
6 | C#Cc1cccc(Nc2ncnc3cc(OCCOC)c(OCCOC)cc23)c1 [erlotinib] |  |  |  |  |  | -10 | 6 | -1.89 | 3.5 | -0.225
7 | CO[C@H]1C[C@@H]2CC[C@@H](C)[C@@](O)(O2)C(=O)C(=O)N2CCCC[C@H]2C(=O)O[C@H]([C@H](C)C[C@@H]2CC[C@@H](OCCO)[C@H](OC)C2)CC(=O)[C@H](C)/C=C(\C)[C@@H](O)[C@@H](OC)C(=O)[C@H](C)C[C@H](C)/C=C/C=C/C=C/1C [everolimus] | 0.059 | -19 | -5 | -6 | -14 |  |  |  |  | 
8 | O=S(=O)(c1cccc2cnccc12)N1CCCNCC1 [fasudil] | -8.49 | 6.46 | -11 | 26 | -3.43 |  |  |  |  | 
9 | CS(=O)(=O)CCNCc1ccc(-c2ccc3ncnc(Nc4ccc(OCc5cccc(F)c5)c(Cl)c4)c3c2)o1 [lapatinib] |  | 0.355 | -3.44 | -3.21 | -2.58 | -2.71 |  |  |  | 
10 | Cc1cn(-c2cc(NC(=O)c3ccc(C)c(Nc4nccc(-c5cccnc5)n4)c3)cc(C(F)(F)F)c2)cn1 [nilotinib] | -2.41 | 1 |  | -2.32 | 6.34 |  |  | 1.43 |  | 
11 | Cc1ccc(Nc2nccc(N(C)c3ccc4c(C)n(C)nc4c3)n2)cc1S(N)(=O)=O [pazopanib] | 1.15 | 3 | 40 | -1.56 | -3 |  |  |  |  | 
12 | Cc1ccc(C(=O)Nc2ccc(CN3CCN(C)CC3)c(C(F)(F)F)c2)cc1C#Cc1cnc2cccnn12 [ponatinib] | -6 | 33 | 84 | -4 | -4 |  |  |  |  | 
13 | CNC(=O)c1cc(Oc2ccc(NC(=O)Nc3ccc(Cl)c(C(F)(F)F)c3)c(F)c2)ccn1 [regorafenib] | -0.767 | 0.529 | -13 | -7 | -11 |  |  |  |  | 
14 | N#CC[C@H](C1CCCC1)n1cc(-c2ncnc3[nH]ccc23)cn1 [ruxolitinib] | 25 | 0.106 |  | 39 | -6 |  |  | -0.311 |  | 
15 | CCN(CC)CCNC(=O)c1c(C)[nH]c(/C=C2\C(=O)Nc3ccc(F)cc32)c1C [sunitinib] |  |  |  | 85 |  |  |  |  |  | 
16 | CO[C@H]1C[C@@H]2CC[C@@H](C)[C@@](O)(O2)C(=O)C(=O)N2CCCC[C@H]2C(=O)O[C@H]([C@H](C)C[C@@H]2CC[C@@H](OC(=O)C(C)(CO)CO)[C@H](OC)C2)CC(=O)[C@H](C)/C=C(\C)[C@@H](O)[C@@H](OC)C(=O)[C@H](C)C[C@H](C)/C=C/C=C/C=C/1C [temsirolimus] | -0.295 | -23 | -6 | -7 | -6 |  |  |  |  | 
17 | CC(=O)Nc1cccc(-n2c(=O)n(C3CC3)c(=O)c3c(Nc4ccc(I)cc4F)n(C)c(=O)c(C)c32)c1 [trametinib] | -9 | 8 | -2.85 | -5 | -3.43 |  |  |  |  | 
18 | COc1cc2c(Nc3ccc(Br)cc3F)ncnc2cc1OCC1CCN(C)CC1 [vandetanib] | -3.6 | -0.952 | 20 | 2.66 | -10 |  |  |  |  | 
19 | CCCS(=O)(=O)Nc1ccc(F)c(C(=O)c2c[nH]c3ncc(-c4ccc(Cl)cc4)cc23)c1F [vemurafenib] | -4 | 10 | 8 | -4 | -5 |  |  |  |  | 
